Assay results published in patent publication US5457182A (Merck & Co., Inc., priority 1994, dated 1995).
Entries after “also recorded” stand apart in the source; their conditions may differ. Values belong to the compound of their own block, whether it stands above or below them.

Tests used:
[1] = literature; cited from earlier work
FKBP12.6 [2] = molecular target: T1, FKBP12.6 (Bos taurus, UniProt P68107); assay: Inhibition of PPIase activity of FKBP12.6; type: biochemical, bovine (calf brain)
T1 construct: The FKBP12.6 protein has been isolated and purified from calf brain; from tissue; host or cells: calf brain cytosol
T1 sequence (P68107 whole entry): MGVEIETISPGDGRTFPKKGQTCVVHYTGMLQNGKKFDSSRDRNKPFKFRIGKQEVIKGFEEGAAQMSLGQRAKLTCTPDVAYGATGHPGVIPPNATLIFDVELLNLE
Protocol: (§1) PPIase assays were performed as described (Fischer, G., et al., Nature, 337,476-478 (1989)) with the following changes: the peptide substrate used was N-succinyl-Ala-Leu-Pro-Phe-p-nitroanilide (BACHEM, California) at a final concentration of 72 μM and chymotrypsin (Sigma) was present in the assay at a concentration of 6 μM. The total reaction volume was 1.5 ml. The release of p-nitroanilide by chymotrypsin was measured by following the increase in absorbance at 405 nm on a Beckman DU68 spectrophotometer. After an initial rapid rise in absorbance due to hydrolysis of the trans peptide, the slow secondary increase in absorbance which reflects the cis-to-trans conversion of the peptide by the PPIase was measured at 3 sec intervals out to 1.5 min. The data were fitted to a simple first-order rate equation and the first-order rate constant, k (s^-1), calculated.

JURKAT cells = assay: IL-2 secretion in JURKAT cells stimulated with PMA and ionomycin; type: cell-based, human
FKBP12.6 [3] = molecular target: T1, FKBP12.6; assay: [3H]dihydroFK-506 direct binding (LH-20 assay), Scatchard, FKBP12.6; set-up: species or system bovine (calf brain); settings: direct binding data, Scatchard format
Protocol: (§2) The basic LH-20 binding assay was performed as described by Handschumacher,R., et al., Science, 226, 544-547 (1984) with the modifications noted in Siekierka, J., et al., Nature, 341, 755-757 (1989).

FKBP12 = FKBP12 (Homo sapiens, UniProt P62942); assay: [3H]dihydroFK-506 direct binding, FKBP12; settings: unit inferred
Chain of FKBP12 (P62942 whole entry, species assumed): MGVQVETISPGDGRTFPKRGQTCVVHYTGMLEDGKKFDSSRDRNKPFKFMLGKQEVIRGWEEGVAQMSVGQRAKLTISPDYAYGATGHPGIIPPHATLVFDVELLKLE
Protocol: as §2

calcineurin [4] = assay: Calcineurin phosphatase assay; type: biochemical, bovine
Protocol: For a side-by-side comparison, FKBP12 was also tested for its ability to inhibit calcineurin in the presence of drug.
The calcineurin phosphatase assay is a modified version of previous assays (Liu, J., et al., Cell, 66, 807-815 (1991); Manalan, A., et al., Proc. Natl. Acad. Sci. U.S.A., 80, 4291-4295 (1983)). Reaction mixtures ([…] contained: 40 mM Tris (pH 8), 100 mM NaCl, 6 mM Mg(OAc)2, 0.1 mM CaCl2, 0.1 mg/ml BSA, 0.5 mM dithiothreitol, 190 nM bovine brain calmodulin (Sigma), 3 nM bovine brain calcineurin (Sigma), and 40 μM [^33 P]RII peptide (Peptides International) (600 cpm/pmole). Reaction mixtures were pre-incubated for 30 min at 30° C. prior to addition of the labeled peptide. The reaction was initiated by addition of the peptide and the dephosphorylation reaction was allowed to proceed for 10 min at 30° C. The reaction was terminated by the addition of 0.5 ml of 5% trichloroacetic acid containing 100 mM sodium phosphate (stop buffer) and applied to a 0.5 ml Dowex 50W-X8, H^+ column. Free [^33 P]phosphate was eluted from the column with 0.5 ml of stop buffer followed by 0.5 ml of water.

calcineurin [5] = assay: FKBP.FK-506.CaN complex-formation assay (size-exclusion column, Western analysis); type: binding, bovine; settings: Ca^2+
Protocol: In the modified assay, samples were assayed by Western analysis using the anti-C-terminal peptide antibody in order to identify FKBP12 and FKBP12.6 in various chromatographic fractions.
In the first experiment, FKBP12 and FKBP12.6 were partially purified by preparative HPLC gel filtration chromatography on a Bio-Sil TSK-125 column. These partially purified FKBPs (containing both FKBP12 and FKBP12.6) are devoid of CaN which separates completely from them on this column. FKBP12 and FKBP12.6 co-elute at fractions 26 and 27 on the analytical sizing column (G2000SW) used in this experiment. […] Because this crude FKBP material also contains FKBP12.6, it can also be observed migrating slightly above FKBP12 in FIG. 4A.
To more carefully examine the requirements for FKBP12.6 complex formation with CaN, experiments were conducted using purified FKBP12.6.
The incubation buffer contained 20 mM Tris (pH 7.5), 100 mM NaCl, 6 mM MgCl2, 0.1 mM CaCl2, 0.1 mg/ml BSA, and 0.5 mM dithiothreitol. The incubation reaction was chromatographed on a Bio-Sil SEC400 HPLC column (Bio-Rad) at a flow rate of 1 ml/min and 1 min fractions were collected. The chromatography buffer was the same as the incubation buffer except that BSA was omitted. 30 μl of fractions 19-29 were subjected to electrophoresis on a 16% Novex Tris-Glycine gel and Western analysis was performed as described above.

[6] = FK-506 specific binding activity of FKBP12.6 preparations (LH-20 assay); settings: Step II. CM-650M
[7] = Peptidyl-prolyl cis-trans isomerase (PPIase) activity; type: biochemical
Protocol: as §1

Heat stability = type: physicochemical
[8] = FK-506 specific binding activity of FKBP12.6 preparations (LH-20 assay)
Protocol: However, FKBP12.6 is separated completely from authentic FKBP12 in Step II by chromatography on the CM-450M column. FKBP12.6 remains bound to the CM column while FKBP12 flows through during loading and washing. FKBP12.6 elutes from the column between 100 and 200 mM NaCl and Westerns of the gradient fractions using the anti-C-terminal peptide antibody confirm that there is no trace of FKBP12 present in the FKBP12.6 fractions. Because of the presence of FKBP12 in the S200, the recovery of FKBP12.6 may only be calculated from the CM-450M step forward using the standard LH-20 binding assay (Handschumacher, R., et al., Science. 226, 544-547 (1984)).
Starting with approximately 60 grams of protein in the crude cytosolic brain extract, a typical yield after purification is about 50 μg of homogeneous FKBP12.6 (see Table I). […] FKBP12.6 was eluted from the resin with 4M guanidine-HCl and renatured by dialysis. […] This calculates to a 3,271-fold purification from the CM-450M step. Because the CM-450M step removes 94% of the protein from the crude extract, the overall s purification from the S200 is actually much greater. In calf brain cytosol then, FKBP12.6 is clearly much less abundant than FKBP12 is in calf thymus which was purified from that tissue 337-fold to homogeneity with almost the identical recovery (Siekierka, J., et al., Nature, 341, 755-757 (1989)). […] A second explanation for the lower than expected binding is that the LH-20 assay used to estimate binding is not an equilibrium binding assay and ligand off-rates will result in lower calculated specific binding activities. A third explanation is that all of the FKBP12.6 may not be […] properly and the […] protein may not bind effectively.
as §2

[9] = partially purified FKBP12.6 (Step VI)

Compound: C=CCC1C=C(C)CC(C)CC(OC)C2OC(O)(C(=O)C(=O)N3CCCCC3C(=O)OC(C(C)=CC3CCC(O)C(OC)C3)C(C)C(O)CC1=O)C(C)CC2OC (stereo not drawn) [FK-506, 17-allyl-1,14-dihydroxy-12-[2'-(4"-hydroxy-3"-methoxycyclohexyl)-1'-methylvinyl]-23,25-dimethoxy-13,19,21,27-tetramethyl-11,28-dioxa-4-azatricyclo-[22.3.1.0^4,9]octacos-18-ene-2,3,10,16-tetraone]
neurological toxicities [1]: neurological toxicities, which include drowsiness, lethargy, tremors, and aggressiveness
specific inhibition of FKBP12.6 PPIase activity (FKBP12.6 [2]; Example 4): specifically inhibited by FK-506
inhibition of PPIase activity of FKBP12.6 (FKBP12.6 [2]; [9]): potent inhibitors

Kd (FKBP12.6 [3]): 0.55 nM
Kd (FKBP12): 0.4 nM
Compound: [3H]CC([3H])C[C@@H]1/C=C(\C)C[C@H](C)C[C@H](OC)[C@H]2O[C@@](O)(C(=O)C(=O)N3CCCC[C@H]3C(=O)O[C@H](/C(C)=C/[C@@H]3CC[C@@H](O)[C@H](OC)C3)[C@H](C)[C@@H](O)CC1=O)[C@H](C)C[C@@H]2OC (stereo partly drawn) [[^3 H]dihydroFK-506]
inhibition of IL-2 secretion (JURKAT cells; JURKAT cells, PMA and ionomycin): potent inhibitor
potency relative to parent compound (times less potent) (JURKAT cells; inhibition of IL-2 secretion, parent FK-506): 5 times

Compound: CO[C@H]1C[C@@H]2CC[C@@H](C)[C@@](O)(O2)C(=O)C(=O)N2CCCC[C@H]2C(=O)O[C@H]([C@H](C)C[C@@H]2CC[C@@H](O)[C@H](OC)C2)CC(=O)[C@H](C)/C=C(\C)[C@@H](O)[C@@H](OC)C(=O)[C@H](C)C[C@H](C)/C=C/C=C/C=C/1C [rapamycin]
inhibition of PPIase activity of FKBP12.6 (FKBP12.6 [2]; [9]): potent inhibitors
inhibition of PPIase activity relative to FK-506 (FKBP12.6 [2]; [9]): somewhat better inhibitor than FK-506

IC50 (calcineurin [4]; in presence of FK-506, CaN, CaM, Ca^2+, Mg^2+, read-out: IC50 for inhibition of CaN): 16 nM
FK-506 Binding (ng FK-506 bound/mg protein) [6]: 1.49 ng FK-506 bound/mg protein
FK-506 Binding (ng FK-506 bound/mg protein) ([8]; Step III. TSK-125 HPLC): 4.23 ng FK-506 bound/mg protein
FK-506 Binding (ng FK-506 bound/mg protein) ([8]; Step IV. CM-3SW HPLC): 13.3 ng FK-506 bound/mg protein
FK-506 Binding (ng FK-506 bound/mg protein) ([8]; Step V. Phenyl-5PW HPLC): 52.85 ng FK-506 bound/mg protein
FK-506 Binding (ng FK-506 bound/mg protein) ([8]; Step VI. G2000SW HPLC, about 25% pure): 1278.3 ng FK-506 bound/mg protein
FK-506 Binding (ng FK-506 bound/mg protein) ([8]; Step VII. FK-506 Affinity): 4874.0 ng FK-506 bound/mg protein
theoretical specific binding activity ([8]; assuming mass of 12.6 kDa and 1 mole FK-506 per mole protein): 64 mg of [^3 H]dihydroFK-506 per
retention of binding to FK-506 ([8]; renatured material): retains binding to FK-506
Compound: FKBP12.6: homogeneous cytosolic binding protein for FK-506, 10-12 kilodaltons, from calf brain; partial sequence SEQ ID NO: 1
ability to block CaN phosphatase activity relative to FKBP12 (calcineurin [4]; in presence of FK-506, FIG. 5): almost equipotent to FKBP12
complex formation with CaN (calcineurin [5]; partially purified FKBPs, CaM, Mg^2+ and FK-506): Most of the FKBP12.6 is shifted to a high molecular weight complex
complex formation with CaN (calcineurin [5]; purified FKBP12.6, CaM, Mg^2+ and FK-506): all of the immunoreactive FKBP12.6 is shifted to fractions (20-22)
complex formation with CaN (calcineurin [5]; purified FKBP12.6, CaM, Mg^2+, without FK-506): continues to elute at fractions 26 and 27
PPIase activity compared with FKBP12 ([7]; 25% purity of FKBP12.6 factored in): virtually equivalent to that of FKBP12
PPIase activity ([7]; Example 4): low, but significant PPIase activity
PPIase activity ([7]; material from step VI): did have PPIase activity
PPIase activity ([7]; renatured material (Step VII)): did not have PPIase activity
stability to heating (Heat stability; 56° C. for 30 minutes): not stable upon heating; also recorded: unstable to heating
effect of heat-treatment step (Heat stability; cytosolic extract from calf brain): complete loss of FKBP12.6
specific binding activity ([8]; FKBP12.6 characteristic, summary): about 4.8 micrograms FK-506 per mg FKBP12.6 protein
specific binding activity ([8]; purified FKBP12.6): 4.8 μg of [^3 H]dihydroFK-506 per mg of protein
